{"source": "EPA's ToxRefDB 2", "key": {"rat [1]": {"system": "rat", "conditions": "Sub-acute repeat dose toxicity; Oral; Gavage/Intubation; dose end: 7 day; group: systemic; systemic / hematology / erythrocyte (rbc) count differential / erythrocyte (rbc) + systemic / hematology / hematocrit (hct) / hematocrit (…"}, "rat [2]": {"system": "rat", "conditions": "Sub-acute repeat dose toxicity, sprague dawley, Oral, Gavage/Intubation, dose end: 10 day, group: systemic"}, "dog [3]": {"system": "dog", "conditions": "Subchronic oral toxicity in nonrodent, beagle, Gavage/Intubation, dose end: 91 day, group: systemic"}, "rat [4]": {"system": "rat", "conditions": "Subchronic oral toxicity in rodents, sprague dawley, Gavage/Intubation, dose end: 93 day, group: systemic"}, "rat [5]": {"system": "rat", "conditions": "Sub-acute repeat dose toxicity, sprague dawley, Oral, Gavage/Intubation, dose end: 14 day, group: systemic"}, "dog [6]": {"system": "dog", "conditions": "Sub-acute repeat dose toxicity; beagle; Oral; Gavage/Intubation; dose end: 14 day; group: systemic; systemic / clinical chemistry / [other] / [other]"}, "rabbit [7]": {"system": "rabbit", "conditions": "Prenatal developmental toxicity study; new zealand white; Oral; Gavage/Intubation; dose end: 19 GD; group: maternal; systemic / in life observation / body weight / body weight + systemic / in life observation / body weight / body weight gain + systemic / in…"}, "rat [8]": {"system": "rat", "conditions": "Prenatal developmental toxicity study, other, Oral, Gavage/Intubation, dose end: 17 GD"}, "rat [9]": {"system": "rat", "conditions": "Prenatal developmental toxicity study, sprague dawley, Oral, Gavage/Intubation, dose end: 17 GD"}, "rabbit [10]": {"system": "rabbit", "conditions": "Prenatal developmental toxicity study, new zealand white, Oral, Gavage/Intubation, dose end: 19 GD"}, "mouse [11]": {"system": "mouse", "conditions": "Subchronic oral toxicity in rodents, b6c3f1, Gavage/Intubation, dose end: 13 week, group: systemic"}, "rat [12]": {"system": "rat", "conditions": "Combined chronic toxicity/carcinogenicity; fischer; Oral; Gavage/Intubation; dose end: 2 year; group: systemic; systemic / in life observation / mortality / mortality + systemic / pathology microscopic / lung / foreign body + systemic / pathology …"}, "mouse [13]": {"system": "mouse", "conditions": "Carcinogenicity, b6c3f1, Oral, Gavage/Intubation, dose end: 2 year, group: systemic"}, "rat [14]": {"system": "rat", "conditions": "Subchronic oral toxicity in rodents, fischer, Gavage/Intubation, dose end: 13 week, group: systemic"}, "[15]": {"conditions": "systemic / in life observation / body weight / body weight gain + systemic / in life observation / food consumption / food consumption"}, "[16]": {"conditions": "systemic / in life observation / food consumption / food consumption"}, "[17]": {"conditions": "systemic / in life observation / clinical signs / abnormal feces + systemic / in life observation / clinical signs / emesis"}, "[18]": {"conditions": "systemic / in life observation / clinical signs / abnormal feces + systemic / in life observation / clinical signs / emesis + systemic / …"}, "[19]": {"conditions": "systemic / in life observation / clinical signs / [other]"}, "[20]": {"conditions": "systemic / in life observation / clinical signs / [other] + systemic / in life observation / clinical signs / salivation"}, "[21]": {"conditions": "systemic / clinical chemistry / [other] / [other] + systemic / in life observation / clinical signs / [other] + systemic / in life …"}, "[22]": {"conditions": "group: developmental, systemic / in life observation / body weight / fetal weight"}, "[23]": {"conditions": "group: maternal, systemic / in life observation / body weight / body weight + systemic / in life observation / food consumption / food consumption"}, "[24]": {"conditions": "group: maternal, systemic / in life observation / body weight / body weight + systemic / in life observation / food consumption / food consumption + …"}, "[25]": {"conditions": "group: maternal, systemic / in life observation / food consumption / food consumption"}, "[26]": {"conditions": "group: maternal, systemic / in life observation / food consumption / food consumption + reproductive / reproductive performance / postimplantation loss / …"}, "[27]": {"conditions": "group: maternal, systemic / in life observation / body weight / body weight + systemic / in life observation / food consumption / food consumption + systemic…"}, "[28]": {"conditions": "systemic / in life observation / body weight / body weight"}, "[29]": {"conditions": "systemic / in life observation / body weight / body weight + systemic / in life observation / clinical signs / unsteady gait"}, "[30]": {"conditions": "systemic / pathology microscopic / brain / corpora amylacea + systemic / pathology microscopic / adrenal gland / adenoma + systemic / …"}, "[31]": {"conditions": "systemic / in life observation / body weight / body weight + systemic / in life observation / clinical signs / labored respiration + …"}}}
{"compound": "CCOc1ccc2[nH]cc(C(=O)NCc3ccccc3)c(=O)c2n1", "values": [{"measurement": "LEL", "setting": "rat [1]", "result": 240, "unit": "mg/kg/day"}, {"measurement": "LOAEL", "setting": "rat [1]", "result": "> 240", "unit": "mg/kg/day"}, {"measurement": "NEL", "setting": "rat [1]", "result": "< 240", "unit": "mg/kg/day"}, {"measurement": "NOAEL", "setting": "rat [1]", "result": "≥ 240", "unit": "mg/kg/day"}, {"measurement": "LOAEL", "setting": "rat [2]; [15]", "result": "> 160", "unit": "mg/kg/day"}, {"measurement": "NOAEL", "setting": "rat [2]; [15]", "result": "≥ 160", "unit": "mg/kg/day"}, {"measurement": "LEL", "setting": "rat [2]; [16]", "result": 5, "unit": "mg/kg/day"}, {"measurement": "NEL", "setting": "rat [2]; [16]", "result": "< 5", "unit": "mg/kg/day"}, {"measurement": "LEL", "setting": "dog [3]; [17]", "result": 1, "unit": "mg/kg/day"}, {"measurement": "NEL", "setting": "dog [3]; [17]", "result": "< 1", "unit": "mg/kg/day"}, {"measurement": "LOAEL", "setting": "dog [3]; [18]", "result": "> 80", "unit": "mg/kg/day"}, {"measurement": "NOAEL", "setting": "dog [3]; [18]", "result": "≥ 80", "unit": "mg/kg/day"}, {"measurement": "LEL", "setting": "rat [4]; [19]", "result": 10, "unit": "mg/kg/day"}, {"measurement": "NEL", "setting": "rat [4]; [19]", "result": "< 10", "unit": "mg/kg/day"}, {"measurement": "LOAEL", "setting": "rat [4]; [20]", "result": "> 240", "unit": "mg/kg/day"}, {"measurement": "NOAEL", "setting": "rat [4]; [20]", "result": "≥ 240", "unit": "mg/kg/day"}, {"measurement": "LOAEL", "setting": "rat [5]; [21]", "result": "> 198", "unit": "mg/kg/day"}, {"measurement": "NOAEL", "setting": "rat [5]; [21]", "result": "≥ 198", "unit": "mg/kg/day"}, {"measurement": "LEL", "setting": "rat [5]; [19]", "result": 10, "unit": "mg/kg/day"}, {"measurement": "NEL", "setting": "rat [5]; [19]", "result": "< 10", "unit": "mg/kg/day"}, {"measurement": "LEL", "setting": "dog [6]", "result": 26, "unit": "mg/kg/day"}, {"measurement": "LOAEL", "setting": "dog [6]", "result": "> 26", "unit": "mg/kg/day"}, {"measurement": "NEL", "setting": "dog [6]", "result": 6, "unit": "mg/kg/day"}, {"measurement": "NOAEL", "setting": "dog [6]", "result": "≥ 26", "unit": "mg/kg/day"}]}
{"compound": "CCCOc1sc(C(=O)N2CCC(c3cc(CN)ccc3F)CC2)c(C)c1Br.Cl", "note": "[AVE8923]", "values": [{"measurement": "LEL", "setting": "rabbit [7]", "result": 50, "unit": "mg/kg/day"}, {"measurement": "LOAEL", "setting": "rabbit [7]", "result": "> 300", "unit": "mg/kg/day"}, {"measurement": "NEL", "setting": "rabbit [7]", "result": "< 50", "unit": "mg/kg/day"}, {"measurement": "NOAEL", "setting": "rabbit [7]", "result": "≥ 300", "unit": "mg/kg/day"}, {"measurement": "LEL", "setting": "rat [8]; [22]", "result": 100, "unit": "mg/kg/day"}, {"measurement": "LOAEL", "setting": "rat [8]; [22]", "result": 100, "unit": "mg/kg/day"}, {"measurement": "NEL", "setting": "rat [8]; [22]", "result": 25, "unit": "mg/kg/day"}, {"measurement": "NOAEL", "setting": "rat [8]; [22]", "result": 25, "unit": "mg/kg/day"}, {"measurement": "NEL", "setting": "rat [8]; [23]", "result": 25, "unit": "mg/kg/day"}, {"measurement": "NOAEL", "setting": "rat [8]; [23]", "result": 25, "unit": "mg/kg/day"}, {"measurement": "LEL", "setting": "rat [8]; [24]", "result": 100, "unit": "mg/kg/day"}, {"measurement": "LOAEL", "setting": "rat [8]; [24]", "result": 100, "unit": "mg/kg/day"}, {"measurement": "LEL", "setting": "rat [9]; [22]", "result": 75, "unit": "mg/kg/day"}, {"measurement": "LOAEL", "setting": "rat [9]; [22]", "result": 75, "unit": "mg/kg/day"}, {"measurement": "NEL", "setting": "rat [9]; [22]", "result": 25, "unit": "mg/kg/day"}, {"measurement": "NOAEL", "setting": "rat [9]; [22]", "result": 25, "unit": "mg/kg/day"}, {"measurement": "LEL", "setting": "rat [9]; [25]", "result": 75, "unit": "mg/kg/day"}, {"measurement": "LOAEL", "setting": "rat [9]; [25]", "result": 75, "unit": "mg/kg/day"}, {"measurement": "NEL", "setting": "rat [9]; [26]", "result": 25, "unit": "mg/kg/day"}, {"measurement": "NOAEL", "setting": "rat [9]; [26]", "result": 25, "unit": "mg/kg/day"}, {"measurement": "LEL", "setting": "rabbit [10]; [22]", "result": 200, "unit": "mg/kg/day"}, {"measurement": "LOAEL", "setting": "rabbit [10]; [22]", "result": "> 200", "unit": "mg/kg/day"}, {"measurement": "NEL", "setting": "rabbit [10]; [22]", "result": 100, "unit": "mg/kg/day"}, {"measurement": "NOAEL", "setting": "rabbit [10]; [22]", "result": "≥ 200", "unit": "mg/kg/day"}, {"measurement": "LEL", "setting": "rabbit [10]; [27]", "result": 200, "unit": "mg/kg/day"}, {"measurement": "LOAEL", "setting": "rabbit [10]; [27]", "result": "> 200", "unit": "mg/kg/day"}, {"measurement": "NEL", "setting": "rabbit [10]; [27]", "result": 100, "unit": "mg/kg/day"}, {"measurement": "NOAEL", "setting": "rabbit [10]; [27]", "result": "≥ 200", "unit": "mg/kg/day"}]}
{"compound": "OCc1ccccc1", "note": "[Benzyl alcohol]", "values": [{"measurement": "LEL", "setting": "mouse [11]; [28]", "result": 400, "unit": "mg/kg/day"}, {"measurement": "LOAEL", "setting": "mouse [11]; [29]", "result": 800, "unit": "mg/kg/day"}, {"measurement": "NEL", "setting": "mouse [11]; [29]", "result": 200, "unit": "mg/kg/day"}, {"measurement": "NOAEL", "setting": "mouse [11]; [29]", "result": 400, "unit": "mg/kg/day"}, {"measurement": "LEL", "setting": "rat [12]", "result": 200, "unit": "mg/kg/day"}, {"measurement": "LOAEL", "setting": "rat [12]", "result": "> 400", "unit": "mg/kg/day"}, {"measurement": "NEL", "setting": "rat [12]", "result": "< 200", "unit": "mg/kg/day"}, {"measurement": "NOAEL", "setting": "rat [12]", "result": "≥ 400", "unit": "mg/kg/day"}, {"measurement": "NEL", "setting": "mouse [13]; systemic / pathology microscopic / brain / corpora amylacea", "result": 100, "unit": "mg/kg/day"}, {"measurement": "LEL", "setting": "mouse [13]; [30]", "result": 200, "unit": "mg/kg/day"}, {"measurement": "LOAEL", "setting": "mouse [13]; [30]", "result": "> 200", "unit": "mg/kg/day"}, {"measurement": "NOAEL", "setting": "mouse [13]; [30]", "result": "≥ 200", "unit": "mg/kg/day"}, {"measurement": "LEL", "setting": "rat [14]; [28]", "result": 200, "unit": "mg/kg/day"}, {"measurement": "LOAEL", "setting": "rat [14]; [28]", "result": 400, "unit": "mg/kg/day"}, {"measurement": "NEL", "setting": "rat [14]; [31]", "result": 100, "unit": "mg/kg/day"}, {"measurement": "NOAEL", "setting": "rat [14]; [31]", "result": 200, "unit": "mg/kg/day"}]}
